In publication PMC2375353, “Effective treatment of experimental U-87MG human glioblastoma in nude mice with a targeted cytotoxic bombesin analogue, AN-215” (British Journal of Cancer, 2002):
Values joined by “and” are separate entries in the source; they are usually repeats but may differ in a detail not shown here. Identical values can stand only once.

Legend:
[1] = test system: U-87MG human glioblastomas in nude mice; assay: Histology of U-87MG tumours (experiment 1); assay type: in vivo, human tumour in nude mice; details: for Extent of necrosis vs control / % area of necrosis / Ratio of apoptotic to mitotic indices / Apoptotic index / Mitotic index: experiment 1 tumours; for % area of necrosis: 150 nmol kg^-1 i.v. x4, control 60.0±5.8; for % area of necrosis / Ratio of apoptotic to mitotic indices / Apoptotic index / Mitotic index / Number of AgNORs per cell: mean±s.e.; for Ratio of apoptotic to mitotic indices: control 0.38±0.06; for Apoptotic index / Mitotic index: per 1000 cells; for Apoptotic index: control 5.9±0.7; for Mitotic index: control 16.6±1.4; for Number of AgNORs per cell: silver staining, 50 cells per tumour, control 4.93±0.18
From the text: Samples of tumour tissues were fixed in 10% buffered formalin. The specimens were embedded in Paraplast (Oxford Labware, St. Louis, MO, USA). Six μm thick sections were cut and stained with haematoxylin-eosin. Mitotic and apoptotic cells were counted in nine standard high power microscopic fields containing an average of 330 cells, and their numbers per 1000 cells were accepted as the mitotic and apoptotic indices, respectively. To eliminate errors caused by variances in thickness of slides and cellularity of areas investigated, the ratio of apoptotic to mitotic indices was calculated in each tumour. For the determination of the extent of necrosis in tumours, the crossing points of a microscope ocular net that coincided with necrosis in the slide made at the largest cross-section of each tumour were counted. The ratio of these points to the number of all points above the tumour represented the percentage area of necrosis. […] NORs are parts of DNA closely associated with nucleoli and encode for ribosomal RNA. They are also associated with argyrophylic proteins and thus can be visualised by silver staining. The amount of AgNORs is a good indicator of cell proliferation ([van Diest et al, 1998]). The silver-stained black dots in 50 cells of each tumour were counted and the AgNOR number per cell was calculated. The data were evaluated by one way analysis of variance (ANOVA) and the treated groups compared to the control by Dunnett's test.

[2] = test system: U-87MG human glioblastoma xenografted into nude mice; assay: Experiment 1: growth of s.c. U-87MG xenografts in nude mice; assay type: in vivo, human tumour in male athymic nude mice; details: for Final tumour volume / Final tumour volume, % inhibition / Tumour weight, % inhibition / Tumour doubling time: 150 nmol kg^-1 i.v. days 1, 8, 15, 22; for Final tumour volume / Final tumour volume, % inhibition / Tumour weight, % inhibition: day 29; for Final tumour volume / Tumour doubling time: mean±s.e.; for Final tumour volume: control 3201.5±375.7; for Final tumour volume, % inhibition / Tumour weight, % inhibition: vs control; for Antitumour effect / Tumour doubling time: experiment 1; for Antitumour effect: 150 nmol kg^-1 i.v.; for Tumour doubling time: day 1 to 29, control 4.5±0.2
Procedure: Human glioblastoma cell line U-87MG was obtained from American Type Culture Collection (Manassas, VA, USA) and cultured as described ([Pinski et al, 1994]). Male athymic (Ncr nu/nu) nude mice, approximately 6-weeks-old on arrival, were obtained from the National Cancer Institute (Frederick Cancer Research and Development Center, Frederick, MD, USA), and housed in laminar air-flow cabinets under pathogen-free conditions with a 12 h light/12 h dark schedule, and fed autoclaved standard chow and water ad libitum. Xenografts were initiated by s.c. injection of 12×10^6 U-87MG cells into the right flanks of five male nude mice. Tumours resulting after 2 weeks were aseptically dissected, mechanically minced, and 3-mm^3 pieces of tumour tissue were transplanted s.c. with a trocar needle. The take rate was 100%. All experiments were performed in accordance with institutional ethical guidelines of animal care and were essentially in agreement with [UKCCCR guidelines (1998)] for the welfare of animals in experimental neoplasia.
Experiment 1 was started when tumours had grown to approximately 40 mm^3 in volume. Animals were randomly divided into three treatment groups: group 1(10 mice), control, which received vehicle solution; group 2 (10 mice), injected with cytotoxic radical AN-201; group 3 (11 mice), given cytotoxic BN analogue AN-215. Cytotoxic compounds were injected through the jugular vein at a dose of 150 nmol kg^−1 of body weight (BW) on days 1, 8, 15 and 22. Tumour volume (length×width×height×0.5236) and BW were measured twice a week. The experiment was terminated on day 29. […] Tumours were excised and weighed. Tumour specimens were snap-frozen and stored at −70°C until extraction of RNA for reverse transcription-polymerase chain reaction (RT–PCR). Tumour volume doubling time was calculated between day 1 and 29 using the formula: […]
as described by [Smolev et al (1977)].
Data are expressed as mean±s.e. Differences between mean values were evaluated by two-tailed Student's t-test, P<0.05 being considered significant.

[3] = cited from earlier work; for BW change: accompanying WBC decrease, nude mice bearing PC-3; for Reduction in WBC count: after the final injection, nude mice bearing PC-3 human prostate cancers
Procedure: In our previous study ([Plonowski et al, 2000]) we reported that after the final injection of AN-215, AN-201 or the mixture of AN-201 and […] there was an approximate 50% reduction in WBC count in nude mice bearing PC-3 human prostate cancers. […] In the present study no measurements of WBC were carried out. Instead, the assessment of toxicity was based on changes in BW and mortality which indicated, in both experiments, that targeted cytotoxic BN analogue AN-215 is not toxic (Table 2). In experiment 1, two of 10 animals (20%) ...

[4] = test system: hGRPR/BRS-1; assay: RT-PCR of hGRPR/BRS-1 mRNA in U-87MG tumours; assay type: in vivo, human; details: experiment 1 tumours; normalised vs hGAPDH; control 15.1±1.5; change not significant
Procedure: Total RNA was extracted from frozen tissue samples by using RNAzolB (Tel-Test, Friendswood, TX, USA) according to the manufacturer's instructions. Concentrations of total RNA were calculated by measuring the OD260 value. Total RNA (4 μg) was subjected to electrophoresis for 2 h at 70 V in 10 μl of sample buffer containing 1× MOPS buffer (pH 6.5), 6.4% formaldehyde, 48% deionized formamide, 0.25% w v^−1 bromophenol blue, 0.05% glycerol and 0.25 mg ml^−1 ethidium bromide. The RNA gel contained 1.4% agarose, 1×MOPS (pH 6.5) and 1.73% formaldehyde.
The RT–PCR was performed using Gene Amp RNA Core Kit (Perkin-Elmer, Foster City, CA, USA). To avoid genomic DNA contamination, all samples were subjected to DNase digestion before RT–PCR. RNA (2 μg) was treated with 0.3 unit of RQ1 RNase-free DNase (Promega, Madison, WI, USA) at 37°C for 30 min in 19 μl of mixture containing 5 mM MgCl2, 1× PCR buffer, 1 mM of each dNTP, 1 unit RNase inhibitor and 2.5 μM random hexamers. The reaction was terminated by enzyme denaturation at 99°C for 5 min. […]
The PCR amplification of the cDNAs for human glyceraldehyde-3-phosphate dehydrogenase (hGAPDH), GRP receptor (hGRPR, BRS-1) and neuromedin-B receptor (hNMBR, BRS-2) was performed as follows. […] The number of cycles was determined in preliminary experiments to be within the exponential range of PCR amplification.

Compound	Extent of necrosis vs control [1]	% area of necrosis [1] [%]	Ratio of apoptotic to mitotic indices [1]	Apoptotic index [1]	Mitotic index [1]	Number of AgNORs per cell [1]	Final tumour volume [2] [mm^3]	Final tumour volume, % inhibition [2] [%]	Tumour weight, % inhibition [2] [%]	Antitumour effect [2]	Tumour doubling time [2]	BW change ([3]; ref Plonowski et al, 2000)	Reduction in WBC count ([3]; ref Plonowski et al, 2000) [%]	hGRPR/BRS-1 mRNA expression [4] [a.u.]	Tolerance with carboxylesterase inhibited ([3]; nude mice, ref Nagy et al, 2000, Plonowski et al)	Efficacy with suppressed esterase activity ([3]; nude mice, ref Plonowski et al, 2000)
COc1cccc2c1C(=O)c1c(O)c3c(c(O)c1C2=O)C[C@@](O)(C(=O)CO)C[C@@H]3O[C@H]1C[C@H](N2C=CCC2)[C@H](O)[C@H](C)O1 [AN-201, 2-pyrrolino-doxorubicin]	only a slight and not significant change in necrosis	69.6±7.0	0.36±0.04	5.3±0.6	15.2±1.5	4.31±0.09	2353.7±506.7	26	13.2	ineffective	5.9 ± 1.4 days	transient decrease in BW	~50	21.6±3.4	–	–
Gln-Trp-Ala-Val-Gly-His-Leu-ψ(CH2-NH)-Leu-NH2 [AN-215]	significantly larger than in the controls	81.7±6.7	0.85±0.25	6.2±0.8	10.9±2.2	4.16±0.12	971.5±227.9	69.6	64.6	strong tumour growth inhibition	8.18±1.8 days and 8.2±1.8 days and 8.2±1.8^c days	transient decrease in BW	~50	25.4±5.1	significantly higher tolerance	highly efficacious
